Test results taken from patent US20070154567A1, “Use of mercury to treat cancer” (priority 2006, published 2007).
Where “and” joins values, the source holds several entries; their conditions need not be identical. Identical values can stand only once.

Tested on: non-metastatic osteosarcoma on distal right radius
Experiment: Oral inorganic mercury (II) treatment of a pet Rottweiler: blood data and clinical follow-up
Format: in vivo, dog
Design: MCV / MCH / Neutrophils, absolute / Bands / Lymphocytes, absolute / Monocytes, absolute / Eosinophils, absolute / Basophils, absolute: unit not given here
From the text: An 8 year old, 108 lbs female Rottweiler, was diagnosed with non-metastatic osteosarcoma on distal right radius.
Earlier cisplatin chemotherapy was attempted, but was stopped due to unacceptable side effects one month before the inorganic mercury treatment. Prior to treatment, the dog had high alkaline phosphatase (ALP) level that had been rising as disease progressed (compare Day (−57) and Day 1 in Table 2). ALP is a known progression marker for osteosarcoma (Kirpensteijn et al., 2002, Vet Pathol 39:240-246 and Gaetano Bacci et al., 2002, Oncology Reports 9: 171-175). The dog completed the first 30-day treatment course followed by a 30-day non-treatment period and started the second treatment course for at least up to day 65. The formulation contained 1 mM mercury acetate in 20 mM sodium acetate buffer, pH 4.5, with 100 mM sucrose and 150 mM sodium chloride additives. It was introduced orally to the dog three times a day at 0.5 micromole Hg^2+/kg/day. […] This drop in ALP level (˜250 Units/month) was significant considering that, prior to starting the mercury (II) treatment, it had been raising at ˜50 U/month rate. As observed by the attending veterinarian, the dog's appetite was increased and the dog gained 5 lbs during that period. […] During this period the condition of the dog worsened and was accompanied by an increase in ALP level (compare Day 32 and Day 65 in Table 3). The dog was euthanized on Day 91.

CC(=O)[O-].CC(=O)[O-].[Hg+2] [inorganic mercury (II), mercury acetate]
condition of the dog (2nd treatment course, formulation administered with food in violation of the protocol): worsened | ALT (SGPT) (Day 1): 61 U/L | AST (SGOT) (Day 1): 28 U/L | Albumin (Day 1): 3.7 g/dL | Albumin/Globulin Ratio (Day 1): 1.1 | Alkaline Phosphatase (ALP) (Day 1): 794 U/L and 794 (H) U/L | Amylase (Day 1): 862 U/L | BUN/Creatinine Ratio (Day 1): 9 | Bands (Day 1): 0 | Basophils, absolute (Day 1): 0 | CPK (Day 1): 175 U/L | Calcium (Day 1): 10.6 mg/dL | Chloride (Day 1): 116 mE/L | Cholesterol (Day 1): 240 mg/dL | Creatinine (Day 1): 1.2 mg/dL | Eosinophils, (%) (Day 1): 7% | Eosinophils, absolute (Day 1): 770 | Globulin (Day 1): 3.4 g/dL | Glucose (Day 1): 77 mg/dL | Hematocrit (Day 1): 41.3% | Hemoglobin (Day 1): 13.7 g/dL | Lymphocytes, (%) (Day 1): 26% | Lymphocytes, absolute (Day 1): 2860 | MCH (Day 1): 22.2 | MCHC (Day 1): 33.2 | MCV (Day 1): 67 | Monocytes, (%) (Day 1): 6% | Monocytes, absolute (Day 1): 660 | Neutrophils, (%) (Day 1): 61% | Neutrophils, absolute (Day 1): 6710 | Phosphorus (Day 1): 5.4 mg/dL | Platelet count (Day 1): 475 (H) 10^3/microl | Potassium (Day 1): 5.2 mE/L | RBC (Day 1): 6.16 10^6/microl | Sodium (Day 1): 152 mE/L | Total Billirubin (Day 1): 0.1 mg/dL | Total Protein (Day 1): 7.1 g/dL | Urea Nitrogen (Day 1): 11 mg/dL | WBC (Day 1): 11.0 10^3/microl | drop in ALP level (Day 1 to Day 32, first treatment course): ~250 Units/month | ALT (SGPT) (Day 32): 61 U/L | AST (SGOT) (Day 32): 27 U/L | Albumin (Day 32): 3.5 g/dL | Albumin/Globulin Ratio (Day 32): 1.1 | Alkaline Phosphatase (ALP) (Day 32): 539 U/L and 539 (H) U/L | Amylase (Day 32): 864 U/L | BUN/Creatinine Ratio (Day 32): 12 | Bands (Day 32): 0 | CPK (Day 32): 198 U/L | Calcium (Day 32): 10.5 mg/dL | Chloride (Day 32): 118 mE/L | Cholesterol (Day 32): 251 mg/dL | Creatinine (Day 32): 1.3 mg/dL | Eosinophils, (%) (Day 32): 5% | Eosinophils, absolute (Day 32): 495 | Globulin (Day 32): 3.3 g/dL | Glucose (Day 32): 102 mg/dL | Hematocrit (Day 32): 39.1% | Hemoglobin (Day 32): 13.9 g/dL | Lymphocytes, (%) (Day 32): 35% | Lymphocytes, absolute (Day 32): 3465 | MCH (Day 32): 24.6 | MCHC (Day 32): 35.5 | MCV (Day 32): 69 | Monocytes, (%) (Day 32): 5% | Monocytes, absolute (Day 32): 495 | Neutrophils, (%) (Day 32): 55% | Neutrophils, absolute (Day 32): 5445 | Phosphorus (Day 32): 5.5 mg/dL | Platelet count (Day 32): 213 10^3/microl | Potassium (Day 32): 5.2 mE/L | RBC (Day 32): 5.64 10^6/microl | Sodium (Day 32): 146 mE/L | Total Billirubin (Day 32): 0.2 mg/dL | Total Protein (Day 32): 6.8 g/dL | Urea Nitrogen (Day 32): 16 mg/dL | WBC (Day 32): 9.9 10^3/microl | ALT (SGPT) (Day 65): 62 U/L | AST (SGOT) (Day 65): 30 U/L | Albumin (Day 65): 3.8 g/dL | Albumin/Globulin Ratio (Day 65): 1.0 | Alkaline Phosphatase (ALP) (Day 65): 606 (H) U/L | Amylase (Day 65): 1003 U/L | BUN/Creatinine Ratio (Day 65): 13 | Bands (Day 65): 0 | Basophils, absolute (Day 65): 0 | CPK (Day 65): 171 U/L | Calcium (Day 65): 10.9 mg/dL | Chloride (Day 65): 113 mE/L | Cholesterol (Day 65): 244 mg/dL | Creatinine (Day 65): 1.2 mg/dL | Eosinophils, (%) (Day 65): 8% | Eosinophils, absolute (Day 65): 808 | Globulin (Day 65): 3.8 (H) g/dL | Glucose (Day 65): 87 mg/dL | Hematocrit (Day 65): 42.3% | Hemoglobin (Day 65): 16.1 g/dL | Lymphocytes, (%) (Day 65): 33% | Lymphocytes, absolute (Day 65): 3333 | MCH (Day 65): 24.8 | MCHC (Day 65): 38.1 (H) | MCV (Day 65): 65 | Monocytes, (%) (Day 65): 4% | Monocytes, absolute (Day 65): 404 | Neutrophils, (%) (Day 65): 55% | Neutrophils, absolute (Day 65): 5555 | Phosphorus (Day 65): 5.1 mg/dL | Platelet count (Day 65): 368 10^3/microl | Potassium (Day 65): 4.6 mE/L | RBC (Day 65): 6.49 10^6/microl | Sodium (Day 65): 150 mE/L | Total Billirubin (Day 65): 0.1 mg/dL | Total Protein (Day 65): 7.5 (H) g/dL | Urea Nitrogen (Day 65): 15 mg/dL | WBC (Day 65): 10.1 10^3/microl | weight gained (first 30 days of treatment): 5 lbs | appetite (first 30 days of treatment, observed by attending veterinarian): increased
